Earlier results on 2 compounds are cited in US20260092079A1, “MANUFACTURE METHOD FOR AQUEOUS FORMULATION OF MANGANESE-CONTAINING COORDINATION COMPLEX, FORMULATION, AND METHOD OF TREATMENT” (GALERA LABS, LLC, priority 2019, published 2026).

In series [1] the test system is experimental model of colitis. To be noted: rats.
The subject of series [2] is radiation-induced oral mucositis. Particulars: hamster, acute radiation-induced oral mucositis.
Series [3] relates to lethal total body irradiation. Particulars: adult mice.
For series [4], the system named is inflammation. To be noted: rat model.
Series [5] has as its system collagen-induced arthritis. To be noted: rat.
For series [6], the system named is VEGFr inhibitor-induced pulmonary disease. Particulars: rat model.
Series [7] relates to oral mucositis. To be noted: head-and-neck cancer patients undergoing chemoradiation therapy.

Take `[Cl-].[Cl-].[Mn+2].c1cc2nc(c1)CN[C@@H]1CCCC[C@H]1NCCN[C@@H]1CCCC[C@H]1NC2` [GC4403]: in series [1], the “Injury to the colon” value is “very significantly reduce the injury to the colon”. In addition, the Radiation damage result in series [2] and in series [3] was “attenuate the radiation damage” throughout. The Inflammation entry in series [4] is “inhibit inflammation”. In series [5], the Joint disease entry is “prevent joint disease”.

`[Cl][Mn][Cl].c1cc2nc(c1)CN[C@H]1CCCC[C@@H]1NCCN[C@H]1CCCC[C@@H]1NC2` [GC4419]: the “VEGFr inhibitor-induced pulmonary disease” value in series [6] was “attenuate VEGFr inhibitor-induced pulmonary disease”. In addition, the Oral mucositis entry in series [7] is “reduce oral mucositis”.
